In PMC6120666 (The EMBO Journal, 2018):

Experiments:
Assay in all cases: Drug affinity chromatography with c-ponatinib and LC-MS/MS (ponatinib interactome)
Format in all cases: binding
[1] = molecular target: T1, proteins of U2OS cell lysate (Homo sapiens, UniProt O00231); conditions: PSMD11, 26S proteasome non-ATPase regulatory subunit 11
T1 construct: Proteins enriched by c-ponatinib from U2OS cell lysate; endogenous in cells; host or cells: U2OS cell lysate
Summary of the method: (§1)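 U2OS cell lysate in NP-40 lysis buffer (2 mg protein per pulldown) was incubated with amine-derivatized NHS beads for 2 h at 4 °C. Bound proteins were washed, eluted with 100 mM formic acid, reduced, alkylated and trypsin-digested, then identified by nano-UPLC–MS/MS on Orbitrap instruments with a 60 min gradient.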

[2] = molecular target: T2, proteins of U2OS cell lysate (Homo sapiens, UniProt O60664); conditions: PLIN3, Perilipin-3
T2 construct: Proteins enriched by c-ponatinib from U2OS cell lysate; endogenous in cells; host or cells: U2OS cell lysate
Summary of the method: as §1

[3] = molecular target: T3, proteins of U2OS cell lysate (Homo sapiens, UniProt O95347); conditions: SMC2, Structural maintenance of chromosomes protein 2
T3 construct: Proteins enriched by c-ponatinib from U2OS cell lysate; endogenous in cells; host or cells: U2OS cell lysate
Summary of the method: as §1

[4] = molecular target: T4, proteins of U2OS cell lysate (Homo sapiens, UniProt P07948); conditions: LYN, Tyrosine-protein kinase Lyn
T4 construct: Proteins enriched by c-ponatinib from U2OS cell lysate; endogenous in cells; host or cells: U2OS cell lysate
Summary of the method: as §1

[5] = molecular target: T5, proteins of U2OS cell lysate (Homo sapiens, UniProt P28066); conditions: PSMA5, Proteasome subunit alpha type-5
T5 construct: Proteins enriched by c-ponatinib from U2OS cell lysate; endogenous in cells; host or cells: U2OS cell lysate
Summary of the method: as §1

[6] = molecular target: T6, proteins of U2OS cell lysate (Homo sapiens, UniProt P31947); conditions: SFN, 14-3-3 protein sigma
T6 construct: Proteins enriched by c-ponatinib from U2OS cell lysate; endogenous in cells; host or cells: U2OS cell lysate
Summary of the method: as §1

[7] = molecular target: T7, proteins of U2OS cell lysate (Homo sapiens, UniProt P34932); conditions: HSPA4, Heat shock 70 kDa protein 4
T7 construct: Proteins enriched by c-ponatinib from U2OS cell lysate; endogenous in cells; host or cells: U2OS cell lysate
Summary of the method: as §1

[8] = molecular target: T8, proteins of U2OS cell lysate (Homo sapiens, UniProt P49336); conditions: CDK8, Cyclin-dependent kinase 8
T8 construct: Proteins enriched by c-ponatinib from U2OS cell lysate; endogenous in cells; host or cells: U2OS cell lysate
Summary of the method: as §1

[9] = molecular target: T9, proteins of U2OS cell lysate (Homo sapiens, UniProt P62491); conditions: RAB11A;RAB11B, Ras-related protein Rab-11A
T9 construct: Proteins enriched by c-ponatinib from U2OS cell lysate; endogenous in cells; host or cells: U2OS cell lysate
Summary of the method: as §1

[10] = molecular target: T10, proteins of U2OS cell lysate (Homo sapiens, UniProt P62851); conditions: RPS25, 40S ribosomal protein S25
T10 construct: Proteins enriched by c-ponatinib from U2OS cell lysate; endogenous in cells; host or cells: U2OS cell lysate
Summary of the method: as §1

[11] = molecular target: T11, proteins of U2OS cell lysate (Homo sapiens, UniProt P84090); conditions: ERH, Enhancer of rudimentary homolog
T11 construct: Proteins enriched by c-ponatinib from U2OS cell lysate; endogenous in cells; host or cells: U2OS cell lysate
Summary of the method: as §1

[12] = molecular target: T12, proteins of U2OS cell lysate (Homo sapiens, UniProt Q13011); conditions: ECH1, Delta(3,5)-Delta(2,4)-dienoyl-CoA isomerase, mitochondrial
T12 construct: Proteins enriched by c-ponatinib from U2OS cell lysate; endogenous in cells; host or cells: U2OS cell lysate
Summary of the method: as §1

[13] = molecular target: T13, proteins of U2OS cell lysate (Homo sapiens, UniProt Q14204); conditions: DYNC1H1, Cytoplasmic dynein 1 heavy chain 1
T13 construct: Proteins enriched by c-ponatinib from U2OS cell lysate; endogenous in cells; host or cells: U2OS cell lysate
Summary of the method: as §1

[14] = molecular target: T14, proteins of U2OS cell lysate (Homo sapiens, UniProt Q14315); conditions: FLNC, Filamin-C
T14 construct: Proteins enriched by c-ponatinib from U2OS cell lysate; endogenous in cells; host or cells: U2OS cell lysate
Summary of the method: as §1

[15] = molecular target: T15, proteins of U2OS cell lysate (Homo sapiens, UniProt Q69YQ0); conditions: SPECC1L, Cytospin-A
T15 construct: Proteins enriched by c-ponatinib from U2OS cell lysate; endogenous in cells; host or cells: U2OS cell lysate
Summary of the method: as §1

[16] = molecular target: T16, proteins of U2OS cell lysate (Homo sapiens, UniProt Q9UJZ1); conditions: STOML2, Stomatin-like protein 2, mitochondrial
T16 construct: Proteins enriched by c-ponatinib from U2OS cell lysate; endogenous in cells; host or cells: U2OS cell lysate
Summary of the method: as §1

[17] = molecular target: T17, proteins of U2OS cell lysate (Homo sapiens, UniProt Q9Y224); conditions: C14orf166, UPF0568 protein C14orf166
T17 construct: Proteins enriched by c-ponatinib from U2OS cell lysate; endogenous in cells; host or cells: U2OS cell lysate
Summary of the method: as §1

[18] = molecular target: T18, proteins of U2OS cell lysate (Homo sapiens, UniProt P46782); conditions: captured protein RPS5, Rank 160
T18 construct: Proteins enriched by c-ponatinib from U2OS cell lysate; endogenous in cells; host or cells: U2OS cell lysate
Summary of the method: as §1

[19] = molecular target: T19, proteins of U2OS cell lysate (Homo sapiens, UniProt Q9HAV4); conditions: captured protein XPO5, Rank 207
T19 construct: Proteins enriched by c-ponatinib from U2OS cell lysate; endogenous in cells; host or cells: U2OS cell lysate
Summary of the method: as §1

T15 sequence (Q69YQ0 whole entry): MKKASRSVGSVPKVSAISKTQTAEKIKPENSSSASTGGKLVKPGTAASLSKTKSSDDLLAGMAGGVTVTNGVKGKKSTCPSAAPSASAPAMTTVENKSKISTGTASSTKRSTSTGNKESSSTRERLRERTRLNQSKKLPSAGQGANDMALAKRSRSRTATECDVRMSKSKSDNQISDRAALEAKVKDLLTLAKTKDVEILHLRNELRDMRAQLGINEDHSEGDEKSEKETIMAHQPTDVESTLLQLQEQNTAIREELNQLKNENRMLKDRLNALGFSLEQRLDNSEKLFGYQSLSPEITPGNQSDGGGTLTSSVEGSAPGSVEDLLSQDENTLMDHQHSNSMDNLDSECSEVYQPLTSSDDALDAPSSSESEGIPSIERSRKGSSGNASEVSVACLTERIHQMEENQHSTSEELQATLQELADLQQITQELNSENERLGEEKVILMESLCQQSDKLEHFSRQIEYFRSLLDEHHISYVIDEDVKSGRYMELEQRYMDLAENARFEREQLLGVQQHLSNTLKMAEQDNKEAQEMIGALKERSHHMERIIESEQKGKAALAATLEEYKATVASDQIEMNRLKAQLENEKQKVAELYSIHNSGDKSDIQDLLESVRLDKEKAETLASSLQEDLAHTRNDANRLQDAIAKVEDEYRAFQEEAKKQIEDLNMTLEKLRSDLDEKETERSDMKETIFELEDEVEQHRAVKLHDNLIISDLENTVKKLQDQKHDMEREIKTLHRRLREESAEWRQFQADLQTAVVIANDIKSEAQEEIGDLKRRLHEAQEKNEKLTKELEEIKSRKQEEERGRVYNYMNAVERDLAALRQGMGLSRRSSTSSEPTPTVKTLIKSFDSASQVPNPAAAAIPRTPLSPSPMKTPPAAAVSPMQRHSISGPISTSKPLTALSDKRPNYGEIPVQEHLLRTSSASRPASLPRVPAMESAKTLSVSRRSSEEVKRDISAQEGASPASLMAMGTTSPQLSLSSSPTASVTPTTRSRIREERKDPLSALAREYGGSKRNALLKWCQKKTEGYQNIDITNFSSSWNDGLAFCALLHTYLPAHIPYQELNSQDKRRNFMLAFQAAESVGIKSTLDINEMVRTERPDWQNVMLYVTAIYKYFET
T14 sequence (Q14315 whole entry): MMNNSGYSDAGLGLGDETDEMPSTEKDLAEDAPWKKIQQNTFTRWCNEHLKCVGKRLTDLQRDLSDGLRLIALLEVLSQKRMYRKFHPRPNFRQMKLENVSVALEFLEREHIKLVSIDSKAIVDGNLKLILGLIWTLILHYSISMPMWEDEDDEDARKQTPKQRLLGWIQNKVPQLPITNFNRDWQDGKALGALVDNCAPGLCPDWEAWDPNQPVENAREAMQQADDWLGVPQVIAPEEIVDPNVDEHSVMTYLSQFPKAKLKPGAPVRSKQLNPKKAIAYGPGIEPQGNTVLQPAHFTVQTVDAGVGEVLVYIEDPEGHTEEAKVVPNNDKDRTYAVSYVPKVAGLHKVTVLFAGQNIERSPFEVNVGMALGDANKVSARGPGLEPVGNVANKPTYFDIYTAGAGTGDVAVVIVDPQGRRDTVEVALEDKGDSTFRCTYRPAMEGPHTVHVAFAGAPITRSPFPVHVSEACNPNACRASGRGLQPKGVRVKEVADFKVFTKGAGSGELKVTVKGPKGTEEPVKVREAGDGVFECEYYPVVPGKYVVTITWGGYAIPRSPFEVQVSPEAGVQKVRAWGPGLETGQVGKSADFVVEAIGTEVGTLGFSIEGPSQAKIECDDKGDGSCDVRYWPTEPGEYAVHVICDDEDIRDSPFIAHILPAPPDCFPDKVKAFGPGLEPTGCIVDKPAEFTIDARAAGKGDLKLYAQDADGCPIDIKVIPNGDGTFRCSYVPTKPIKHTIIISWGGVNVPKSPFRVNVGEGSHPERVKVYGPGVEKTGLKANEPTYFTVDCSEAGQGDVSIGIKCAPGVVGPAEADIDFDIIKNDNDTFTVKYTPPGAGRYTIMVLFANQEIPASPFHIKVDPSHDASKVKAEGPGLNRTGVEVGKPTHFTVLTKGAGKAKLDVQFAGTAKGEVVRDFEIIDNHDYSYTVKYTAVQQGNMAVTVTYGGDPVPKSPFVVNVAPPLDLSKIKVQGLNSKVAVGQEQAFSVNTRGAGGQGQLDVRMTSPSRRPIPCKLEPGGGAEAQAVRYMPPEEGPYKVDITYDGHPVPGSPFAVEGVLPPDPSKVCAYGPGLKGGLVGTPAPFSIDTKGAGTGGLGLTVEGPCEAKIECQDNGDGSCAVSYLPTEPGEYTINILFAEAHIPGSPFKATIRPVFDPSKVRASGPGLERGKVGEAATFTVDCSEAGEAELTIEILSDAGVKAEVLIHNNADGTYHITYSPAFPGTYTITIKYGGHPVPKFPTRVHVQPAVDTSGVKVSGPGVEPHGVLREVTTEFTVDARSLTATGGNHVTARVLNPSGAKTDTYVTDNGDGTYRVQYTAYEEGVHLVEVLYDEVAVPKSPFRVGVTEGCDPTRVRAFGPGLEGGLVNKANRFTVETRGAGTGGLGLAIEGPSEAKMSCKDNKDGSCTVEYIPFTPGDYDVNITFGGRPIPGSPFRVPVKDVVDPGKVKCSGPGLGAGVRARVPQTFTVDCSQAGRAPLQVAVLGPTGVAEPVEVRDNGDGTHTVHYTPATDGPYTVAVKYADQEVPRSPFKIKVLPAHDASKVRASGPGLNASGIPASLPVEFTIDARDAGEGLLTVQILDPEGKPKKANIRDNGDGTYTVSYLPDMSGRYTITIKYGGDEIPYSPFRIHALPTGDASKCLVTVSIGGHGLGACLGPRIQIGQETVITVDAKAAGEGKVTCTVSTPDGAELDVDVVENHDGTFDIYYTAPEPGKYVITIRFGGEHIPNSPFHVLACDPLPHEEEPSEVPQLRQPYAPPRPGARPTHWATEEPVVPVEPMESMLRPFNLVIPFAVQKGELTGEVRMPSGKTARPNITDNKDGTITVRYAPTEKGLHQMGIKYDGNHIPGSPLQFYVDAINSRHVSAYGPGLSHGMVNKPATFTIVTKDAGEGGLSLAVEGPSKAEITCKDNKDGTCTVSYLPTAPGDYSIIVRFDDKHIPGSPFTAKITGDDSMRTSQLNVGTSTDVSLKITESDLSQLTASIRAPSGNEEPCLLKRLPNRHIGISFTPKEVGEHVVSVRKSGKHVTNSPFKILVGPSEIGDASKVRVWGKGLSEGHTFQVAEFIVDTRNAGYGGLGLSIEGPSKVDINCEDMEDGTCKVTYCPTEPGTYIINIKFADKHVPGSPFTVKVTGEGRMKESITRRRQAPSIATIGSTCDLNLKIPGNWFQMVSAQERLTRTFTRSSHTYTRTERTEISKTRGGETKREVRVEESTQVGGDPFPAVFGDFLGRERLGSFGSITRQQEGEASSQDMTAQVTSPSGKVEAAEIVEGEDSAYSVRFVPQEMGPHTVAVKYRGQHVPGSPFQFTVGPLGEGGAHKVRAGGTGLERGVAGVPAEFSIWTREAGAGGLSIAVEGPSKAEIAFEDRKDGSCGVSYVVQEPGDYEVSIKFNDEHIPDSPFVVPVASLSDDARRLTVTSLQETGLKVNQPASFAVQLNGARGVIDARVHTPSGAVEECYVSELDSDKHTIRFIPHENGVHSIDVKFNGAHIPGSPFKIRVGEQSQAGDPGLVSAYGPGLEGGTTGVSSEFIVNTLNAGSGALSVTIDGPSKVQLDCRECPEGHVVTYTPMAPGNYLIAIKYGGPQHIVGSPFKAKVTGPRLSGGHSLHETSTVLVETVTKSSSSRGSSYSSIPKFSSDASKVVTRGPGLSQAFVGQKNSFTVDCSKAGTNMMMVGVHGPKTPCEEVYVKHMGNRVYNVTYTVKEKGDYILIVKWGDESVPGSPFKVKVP
T5 sequence (P28066 whole entry): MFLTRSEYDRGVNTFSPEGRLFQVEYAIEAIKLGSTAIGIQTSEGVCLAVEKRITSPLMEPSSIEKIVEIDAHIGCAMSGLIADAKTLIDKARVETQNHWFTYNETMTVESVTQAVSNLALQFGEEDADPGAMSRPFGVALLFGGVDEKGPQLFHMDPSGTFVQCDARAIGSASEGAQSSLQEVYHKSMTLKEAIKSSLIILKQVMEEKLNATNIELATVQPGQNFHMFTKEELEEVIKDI
T12 sequence (Q13011 34-328): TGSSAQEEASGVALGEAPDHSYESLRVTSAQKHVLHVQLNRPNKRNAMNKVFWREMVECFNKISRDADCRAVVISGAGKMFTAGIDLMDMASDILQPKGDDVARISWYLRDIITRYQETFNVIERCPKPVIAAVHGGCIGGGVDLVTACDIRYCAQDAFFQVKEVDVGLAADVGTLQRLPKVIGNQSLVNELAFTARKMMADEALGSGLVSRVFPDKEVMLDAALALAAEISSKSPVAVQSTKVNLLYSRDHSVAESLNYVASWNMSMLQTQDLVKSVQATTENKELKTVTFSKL
T17 sequence (Q9Y224 whole entry): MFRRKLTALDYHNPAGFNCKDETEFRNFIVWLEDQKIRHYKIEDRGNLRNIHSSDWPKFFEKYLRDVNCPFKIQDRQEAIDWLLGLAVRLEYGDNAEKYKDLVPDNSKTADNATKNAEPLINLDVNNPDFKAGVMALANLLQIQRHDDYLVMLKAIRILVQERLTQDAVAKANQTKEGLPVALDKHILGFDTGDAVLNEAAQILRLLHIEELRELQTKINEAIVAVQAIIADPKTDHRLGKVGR
T2 sequence (O60664 whole entry): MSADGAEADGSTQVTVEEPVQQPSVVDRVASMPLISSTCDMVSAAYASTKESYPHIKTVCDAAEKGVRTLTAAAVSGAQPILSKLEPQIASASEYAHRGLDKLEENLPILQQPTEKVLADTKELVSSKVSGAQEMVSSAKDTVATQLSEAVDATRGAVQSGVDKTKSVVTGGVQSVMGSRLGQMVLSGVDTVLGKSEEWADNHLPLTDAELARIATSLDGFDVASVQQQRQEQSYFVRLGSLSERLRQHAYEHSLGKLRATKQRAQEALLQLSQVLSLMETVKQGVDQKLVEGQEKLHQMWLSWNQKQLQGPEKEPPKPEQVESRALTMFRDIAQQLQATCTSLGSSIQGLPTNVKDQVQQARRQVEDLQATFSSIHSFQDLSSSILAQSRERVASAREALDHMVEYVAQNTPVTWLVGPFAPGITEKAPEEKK

Structure (SMILES) | Average LFQ PON_WT [1] | Average LFQ PON_WT [2] | Average LFQ PON_WT [3] | Average LFQ PON_WT [4] | Average LFQ PON_WT [5] | Average LFQ PON_WT [6] | Average LFQ PON_WT [7] | Average LFQ PON_WT [8] | Average LFQ PON_WT [9] | Average LFQ PON_WT [10] | Average LFQ PON_WT [11] | Average LFQ PON_WT [12] | Average LFQ PON_WT [13] | Average LFQ PON_WT [14] | Average LFQ PON_WT [15] | Average LFQ PON_WT [16] | Average LFQ PON_WT [17] | Average LFQ intensity [18] | Average LFQ intensity [19]
Cc1ccc(C(=O)Nc2ccc(CN3CCN(C)CC3)c(C(F)(F)F)c2)cc1C#Cc1cnc2cccnn12 [PON] | 21.0044 | 20.1604 | 20.8973 | 23.7419 | 20.0873 | 23.8618 | 24.3032 | 23.7078 | 22.3634 | 23.6854 | 21.4936 | 25.3624 | 24.2612 | 26.6007 | 20.8707 | 26.1635 | 20.4304 |  | 
Cc1ccc(C(=O)Nc2ccc(CN3CCN(CCCN)CC3)c(C(F)(F)F)c2)cc1C#Cc1cnc2cccnn12 [c-ponatinib, reference compound] |  |  |  |  |  |  |  |  |  |  |  |  |  |  |  |  |  | 22.4465 | 21.7615
